# Measured values from patent US5561110A, “Method for the treatment of the complications and pathology of diabetes” (Peptide Technology Limited, priority 1994, dated 1996).
# “Also recorded” adds a separate entry of the source.
# How the values were obtained:
# [1] = test system: Salmonella typhimurium TA 100; assay: Ames test, plate incorporation, his- to his+ reversion
# Protocol: Preparation of glycated compounds was performed according to Kim et al. (1991). In brief, D-glucose (1M) and each of the following: L-carnosine, L-lysine, L-alanine (all 1M) were dissolved in distilled water, the pH adjusted to 7 and the mixtures heated at 100° C. for 80 min. The solutions (50 μl and 250 μl ) were evaluated against strain TA 100 of Salmonells typhimurium using the plate incorporation method (Maron & Ames, 1983) with or without metabolic activation by a standard rat liver microsomal (S-9) preparation.
# Salmonella tyrphimurium TA 100 indicator strain his^- to his^+ reversion system. Data represent the mean number of revertants per plate and their standard deviation for the test solutions and controls with and without metabolic stimulation by rat liver microsomal (S-9) preparation.
# ovalbumin = assay: Glycation of ovalbumin by DHA with anti-glycator, gel filtration on Superose 6; format: biochemical; settings: for effectiveness as anti-glycator, in words: ovalbumin + DHA, 60° C., 7 hours
# Protocol: Gelfiltration Chromatography of Glycated Proteins HPLC Specifications:
# COLUMN Superose 6, Pharmacia
# SAMPLE: 100μ of Protein Sample (Approximately 100 μg)
# Calibration was performed using Pharmacia high molecular weight (HMW) and low molecular weight (LMW) calibration kit.
# To compare the effect of both carnosine and aminoguanidine on glycation bovine serum albumin (BSA) and ovalbumin was incubated with a constant amount of DHA and varying concentrations of either anti-glycator at 60° C. At the start of the reaction and after seven hours aliquots were taken and the progress of the reaction analysed by gel filtration on a Superose 6 column. Crosslinking or fragmentation of protein became clearly visible as a change in retention time compared to the untreated protein used as control. Some compounds eluted after theoretical retention time for the smallest compound. They tend to interfere with the column resin even at high ionic strength and presence of a detergent (Tween 20). They are not necessary small compounds but rather highly charged and reactive. […] In all aminoguanidine samples uncharacterised reaction products are formed predominantly at high concentrations (described as low molecular weight form "LMW" because the retention time is longer then observed for all other compounds). […] LMW were also observed when ovalbumin was replaced by bovine serum albumin in the incubation mixture (not shown). The LMW forms were never present in the camosine samples. A good measure for the effectiveness of an
# Legend: ovalbumin was incubated with DHA for 7 hours in the presence of
# various concentrations of either carnosine or aminoguanidine. Reaction
# products were separated on a gelfiltration column (Superose 6) and peaks
# grouped according to their retention times: HMW, high molecular weight
# (15-30 min); albumin monomer (35 min); and late eluting compounds LMW, lo
# molecular weight (>40 min). Carnosine and aminoguanidine concentration
# [control] 0 mM, [A] 600 mM, [B] 300 mn, [C] 100 mM, [D] 50 mM.
# diabetic models = settings: 30 weeks of feeding; cited from earlier work
# [2] = Body weight and organ weights of cholesterol-fed rabbits; format: in vivo, rabbit
# Protocol: (§1) Male New Zealand white cross rabbits fed a high cholesterol (2%) diet were randomised to control or carnosine treatment 2% and plasma was assayed for cholesterol and triglycerides and carnosine. All animals received 100 g of food pellets/day and free access to water.
# (§2) At the end of the 8 week treatment period, the rabbits were anaesthetised with pentobarbitone (325 mg/kg) and the total aorta removed. The arch, thoracic and abdominal regions were isolated by cutting the aorta circumferentially 1.0 cm proximal to the first pair of intercostal arteries and 0.3 cm above the coeliac artery. The adventitia was carefully dissected away, and the artery longitudinally cut to expose the intimal surface. The aorta was fixed in 10% buffered formalin for 48 hours. The lipid plaques in these vessels were then stained using Sudan IV and mounted with an aqueous mounting medium (Kaiser's Glycerol Jelly). The lesioned areas were directly traced from the mounted sections using an image analyser (Eye Com 850 image processor). Computer-aided planimetry was used to macroscopically determine the percentage of the affected area. Representative segments of atherosclerotic plaque were removed for confirmation by light microscopy. Results are expressed as mean ±SEM.
# [3] = test system: streptozotocin induced diabetic rat; assay: Formation of cataracts in streptozotocin induced diabetic rats; format: in vivo; settings: after 8 week on carnosine diet (56 days), 2% in drinking water
# Protocol: (§3) Male Sprague-Dawley rats weighing 200-250 g and 6 weeks of age were randomised to the following three treatment groups: control, diabetic, and carnosine-treated diabetic rats. Diabetes was induced with streptozotozen STZ(60 mg/kg body weight in citrate buffer, pH 4.5, i.v.), and all animals with plasma glucose levels >20 mM after 1 week were included in the study. Diabetic rats were randomised to receive either no therapy or 2% carnosine in drinking water.
# Cataract is an opacification of the ocular lens sufficient to impair vision. Diabetes has been associated with cataract for many years and many laboratory experiments support the view that diabetes is the cause of one form of cataract. Diabetes in animals can be induced by streptozotozin and opacity of the lens starts to develop by 20 days after injection but dense opacities appear only after about 100 days depending on age at injection.
# In cataract adducts of sugars to proteins including lens proteins have been identified and quantified. In most tissues there is little accumulation of late Maillard products even in diabetes but proteins in the lens nucleus have time not only to accumulate early glycation products but also for them to change into yellow Maillard products. […] Since this was measured at 56 days, the half way mark of the experiment, the trend indicates a reduction in cataract formation by carnosine feeding.
# mammals = settings: cited from earlier work
# [4] = test system: Male New Zealand white cross rabbits fed a high cholesterol (2%) diet; assay: Atherosclerotic plaque formation in aorta of cholesterol-fed rabbits; format: in vivo, rabbit; settings: 8 weeks
# Protocol: as §1, §2
# Coronary heart disease is one of the most common causes of deaths in diabetics and non-diabetics alike. […]
# [5] = test system: streptozotocin induced diabetic rat; assay: Albuminuria, glycated haemoglobin and blood glucose in diabetic rats; format: in vivo; settings: week 8
# Protocol: as §3
# bovine serum albumin = assay: Dihydroxyacetone-induced modification (non-enzymic glycosylation, gel formation) of bovine serum albumin; format: biochemical; settings: BSA 50 mg/ml, 250 mM dihydroxyacetone, 250 mM L-carnosine, 23° C., 4 weeks
# Protocol: Physiological concentrations of bovine serum albumin (50 mg/ml in 50 mM Na-phosphate buffer pH 7.0) were incubated with or without 250 mM dihydroxyacetone in the presence and absence of 250 mM L-carnosine at 23° C. for 4 weeks. The experiment was performed under sterile conditions and the ionic strength was the same in all vials.
compound,measurement,setting,value
"CC(=O)Nc1ccc2c(c1)Cc1ccccc1-2 [2AAF, reference compound]","Revertants per Plate with TA 100, With S-9","[1]; positive control, dose not given",500
"N=C(N)NN [Aminoguanidine, aminoguanidine, reference compound]","Percent Area of Chromatogram, HMW","ovalbumin; after 7 hours, [A] 600 mM",0%
same,"Percent Area of Chromatogram, LMW","ovalbumin; after 7 hours, [A] 600 mM",69%
same,"Percent Area of Chromatogram, Monomer","ovalbumin; after 7 hours, [A] 600 mM",31%
same,"Percent Area of Chromatogram, HMW","ovalbumin; after 7 hours, [B] 300 mn",8%
same,"Percent Area of Chromatogram, LMW","ovalbumin; after 7 hours, [B] 300 mn",72%
same,"Percent Area of Chromatogram, Monomer","ovalbumin; after 7 hours, [B] 300 mn",20%
same,"Percent Area of Chromatogram, HMW","ovalbumin; after 7 hours, [C] 100 mM",0%
same,"Percent Area of Chromatogram, LMW","ovalbumin; after 7 hours, [C] 100 mM",49%
same,"Percent Area of Chromatogram, Monomer","ovalbumin; after 7 hours, [C] 100 mM",41%
same,"Percent Area of Chromatogram, HMW","ovalbumin; after 7 hours, [D] 50 mM",38%
same,"Percent Area of Chromatogram, LMW","ovalbumin; after 7 hours, [D] 50 mM",22%
same,"Percent Area of Chromatogram, Monomer","ovalbumin; after 7 hours, [D] 50 mM",40%
same,"Percent Area of Chromatogram, HMW","ovalbumin; t0 hours, [A] to [D] 600-50 mM",0%
same,"Percent Area of Chromatogram, LMW","ovalbumin; t0 hours, [A] to [D] 600-50 mM",0%
same,"Percent Area of Chromatogram, Monomer","ovalbumin; t0 hours, [A] to [D] 600-50 mM",100%
same,amount of glycated haemoglobin,diabetic models,does not reduce
"NCCC(=O)N[C@@H](Cc1cnc[nH]1)C(=O)O [carnosine, β-alanyl-L-histidine]","Percent Area of Chromatogram, HMW","ovalbumin; after 7 hours, [A] 600 mM",9%
same,"Percent Area of Chromatogram, LMW","ovalbumin; after 7 hours, [A] 600 mM",0%
same,"Percent Area of Chromatogram, Monomer","ovalbumin; after 7 hours, [A] 600 mM",91%
same,"Percent Area of Chromatogram, HMW","ovalbumin; after 7 hours, [B] 300 mn",6%
same,"Percent Area of Chromatogram, LMW","ovalbumin; after 7 hours, [B] 300 mn",0%
same,"Percent Area of Chromatogram, Monomer","ovalbumin; after 7 hours, [B] 300 mn",94%
same,"Percent Area of Chromatogram, HMW","ovalbumin; after 7 hours, [C] 100 mM",3%
same,"Percent Area of Chromatogram, LMW","ovalbumin; after 7 hours, [C] 100 mM",0%
same,"Percent Area of Chromatogram, Monomer","ovalbumin; after 7 hours, [C] 100 mM",97%
same,"Percent Area of Chromatogram, HMW","ovalbumin; after 7 hours, [D] 50 mM",25%
same,"Percent Area of Chromatogram, LMW","ovalbumin; after 7 hours, [D] 50 mM",0%
same,"Percent Area of Chromatogram, Monomer","ovalbumin; after 7 hours, [D] 50 mM",75%
same,"effectiveness as anti-glycator, in words",ovalbumin,more effective at all concentrations compared to aminoguanidine
same,"effectiveness as anti-glycator, in words",ovalbumin; listed as Carnosine,reduced formation of high molecular weight compounds and was slightly more effective at low concentration compared to aminoguanidine
same,"Percent Area of Chromatogram, HMW","ovalbumin; t0 hours, [A] to [D] 600-50 mM",0%
same,"Percent Area of Chromatogram, LMW","ovalbumin; t0 hours, [A] to [D] 600-50 mM",0%
same,"Percent Area of Chromatogram, Monomer","ovalbumin; t0 hours, [A] to [D] 600-50 mM",100%
same,"Revertants per Plate with TA 100, With S-9",[1]; Dose 50 μl,179 ± 15
same,"Revertants per Plate with TA 100, Without S-9",[1]; Dose 50 μl,154 ± 14
same,"Revertants per Plate with TA 100, With S-9",[1]; Dose 250 μl,149 ± 13
same,"Revertants per Plate with TA 100, Without S-9",[1]; Dose 250 μl,158 ± 11
same,mutagenicity,"[1]; TA 100, with or without S-9",not mutagenic
same,"body weight versus control, in words",[2]; 8 week treatment period,no difference
same,"weight of various organs versus control, in words",[2]; 8 weeks,No difference
same,Body Weight,[2]; Week 0,3.33 ± 0.09 kg
same,Body Weight,[2]; Week 8,2.68 ± 0.12 kg
same,"Weight of organs, Heart",[2]; after 8 weeks treatment,6.12 ± 0.27 g
same,"Weight of organs, Kidney",[2]; after 8 weeks treatment,17.53 ± 0.69 g
same,"Weight of organs, Liver",[2]; after 8 weeks treatment,124.40 ± 6.36 g
same,lens clarity compared to diabetic control group,[3],higher clarity (less opacity)
same,"toxicity, in words",mammals; in vivo,virtually non-toxic
same,level that can be administered,mammals; mammals,5-10 g/kg body weight
same,"atherosclerotic plaque formation, in words",[4],can reduce but not prevent plaque formation
same,Blood Glucose (mean + SEM),[5],22.63 ± 3.00 mM
same,Percent Glycated Haemoglobin (HbAlc),[5],4.49 ± 0.14%
same,Resultant effects (appearance of albumin incubation),bovine serum albumin,"dark brown, fluid; also recorded: remained fluid"
